Reference: patent US8309546B2, “Morpholinopurine derivatives” (Daiichi Sankyo Company, Limited, priority 2008, dated 2012)

Key:
[1] = tested on: human endometrial cancer cell strain AN3CA tumor; test: Anti-tumor effect assay using mouse subcutaneous transplantation model; format: in vivo, female nude mouse; conditions: AN3-CA, oral, tumor weight vs negative control, read-out: Anti-tumor effect (tumor growth inhibition rate); for inhibition in vivo at 5 mg/kg/day / inhibition in vivo at 10 mg/kg/day / inhibition in vivo at 2.5 mg/kg/day: 8 or 5 consecutive days depending on compound; for inhibition in vivo at 20 mg/kg/day: consecutive days
Procedure: A tumor section was prepared from a human endometrial cancer cell strain AN3CA tumor mass formed in a female nude mouse as a subcutaneously transplanted tumor and then a xenograft model was prepared by transplanting the tumor section into female nude mouse. Tumor-bearing mice having an estimated tumor volume (long diameter×short diameter×short diameter/2) of 80 to 200 mm^3 were divided, so that there should be no significant difference in the mean estimated tumor volume and body weight as compared with the negative control group to perform a test. The test compound was orally administered at a predetermined dose for 8 consecutive days. On the following day of the final administration day, tumor-bearing mice were anesthetized and exsanguinated to death and a tumor mass was isolated to measure tumor weight (the compounds of Examples 1, 3, 6, 8, 11, 12, and 14). Furthermore, as a similar test, the test compound was orally administered for 5 consecutive days, animals were sacrificed on the final administration day, and tumor weight was measured (the compounds of Examples 60, 63, 75, 77, 79, 89, 92, 107, 108, 109, 110, and 127).
In all the tests, anti-tumor effect was calculated by the following formula. {1−(tumor weight in compound treatment group/tumor weight in negative control group)}×100

[2] = molecular target: T1, human mTOR (His-tagged mTOR (1362C)) (Homo sapiens, UniProt P42345); test: mTOR kinase activity inhibition assay; format: biochemical; conditions: HTRF, read-out: IC50 against mTOR
T1 construct: the 1362 to 2549 amino acid portion on the C terminus side of human mTOR; His tag (N); made in house
T1 sequence (P42345 1362-2549): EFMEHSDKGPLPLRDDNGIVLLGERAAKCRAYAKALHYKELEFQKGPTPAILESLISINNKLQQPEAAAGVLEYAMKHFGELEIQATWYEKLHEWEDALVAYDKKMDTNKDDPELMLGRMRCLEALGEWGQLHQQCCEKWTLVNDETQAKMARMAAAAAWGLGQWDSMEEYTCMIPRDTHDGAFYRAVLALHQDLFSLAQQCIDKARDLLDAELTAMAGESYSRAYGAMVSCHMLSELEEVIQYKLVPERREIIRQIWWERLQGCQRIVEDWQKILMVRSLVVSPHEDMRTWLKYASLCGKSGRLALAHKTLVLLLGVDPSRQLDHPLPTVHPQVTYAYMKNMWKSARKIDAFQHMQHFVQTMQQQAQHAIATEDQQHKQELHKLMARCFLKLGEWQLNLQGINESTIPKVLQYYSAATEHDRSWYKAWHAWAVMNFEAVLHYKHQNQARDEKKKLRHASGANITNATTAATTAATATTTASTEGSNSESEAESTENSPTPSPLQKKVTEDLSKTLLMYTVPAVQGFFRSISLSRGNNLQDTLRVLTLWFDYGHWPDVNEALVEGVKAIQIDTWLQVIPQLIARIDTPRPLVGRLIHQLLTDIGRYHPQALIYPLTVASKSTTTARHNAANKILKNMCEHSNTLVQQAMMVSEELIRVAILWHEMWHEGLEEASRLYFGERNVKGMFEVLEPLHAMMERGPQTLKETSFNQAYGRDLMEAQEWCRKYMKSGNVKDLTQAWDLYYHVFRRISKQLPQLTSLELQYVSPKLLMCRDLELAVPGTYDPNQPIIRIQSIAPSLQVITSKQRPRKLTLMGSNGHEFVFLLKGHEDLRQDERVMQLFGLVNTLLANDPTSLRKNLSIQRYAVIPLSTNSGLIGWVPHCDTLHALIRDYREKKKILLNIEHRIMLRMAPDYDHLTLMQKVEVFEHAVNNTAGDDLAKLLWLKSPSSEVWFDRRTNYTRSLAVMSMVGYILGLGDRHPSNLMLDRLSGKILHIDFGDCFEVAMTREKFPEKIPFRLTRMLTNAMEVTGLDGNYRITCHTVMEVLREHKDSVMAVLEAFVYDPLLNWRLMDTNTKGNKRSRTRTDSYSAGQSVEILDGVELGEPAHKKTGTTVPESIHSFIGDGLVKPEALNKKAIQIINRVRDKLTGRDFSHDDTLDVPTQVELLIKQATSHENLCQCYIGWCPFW
In short: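 Crude His-tagged mTOR (aa 1362–2549) from stable HEK293 cells, with 8 μg/ml biotinylated peptide in 50 mM HEPES pH 7.5, 20 mM MnCl2; compound diluted in 20 μM ATP solution, reaction 3 h at room temperature. Phospho-peptide detected by HTRF (anti-phospho-S6K Thr389 cryptate/streptavidin-XL665, overnight at 4°C), 665/620 nm ratio. IC50 derived from curve fit of % inhibition.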

Row | Compound | inhibition in vivo at 5 mg/kg/day [1] | inhibition in vivo at 10 mg/kg/day [1] | IC50 [2] | inhibition in vivo at 2.5 mg/kg/day [1] | inhibition in vivo at 20 mg/kg/day [1]
1 | CC(C)Cn1c(N2CCN(S(C)(=O)=O)CC2)nc2c(N3CCOCC3)nc(-c3cnc(N)nc3)nc21 [Example 1, 5-{9-Isobutyl-8-[4-(methylsulfonyl)piperazin-1-yl]-6-morpholin-4-yl-9H-purin-2-yl}pyrimidin-2-amine] | 79% | 92% | 0.01 to 0.03 µM | – | –
2 | CC(=O)N1CCN(c2nc3c(N4CCOCC4)nc(-c4cnc(N)nc4)nc3n2CC(C)C)CC1 [Example 2, 5-[8-(4-Acetylpiperazin-1-yl)-9-isobutyl-6-morpholin-4-yl-9H-purin-2-yl]pyrimidin-2-amine] | 44% | 70% | 0.01 to 0.03 µM | – | –
3 | CS(=O)(=O)N1CCN(c2nc3c(N4CCOCC4)nc(-c4cnc(N)nc4)nc3n2CC2CC2)CC1 [Example 3, 5-{9-(Cyclopropylmethyl)-8-[4-(methylsulfonyl)piperazin-1-yl]-6-morpholin-4-yl-9H-purin-2-yl}pyrimidin-2-amine] | 75% | 86% | 0.01 to 0.03 µM | – | –
4 | Cc1nc(N)ncc1-c1nc(N2CCOCC2)c2nc(N3CCN(S(C)(=O)=O)CC3)n(CC3CC3)c2n1 [Example 6, 5-{9-(Cyclopropylmethyl)-8-[4-(methylsulfonyl)piperazin-1-yl]-6-morpholin-4-yl-9H-purin-2-yl}-4-methylpyrimidin-2-amine] | 66% | 69% | 0.1 to 0.5 µM | – | –
5 | CS(=O)(=O)N1CCN(c2nc3c(N4CCOCC4)nc(-c4cnc(N)nc4)nc3n2CC(F)(F)F)CC1 [Example 8, 5-{8-[4-(Methylsulfonyl)piperazin-1-yl]-6-morpholin-4-yl-9-(2,2,2-trifluoroethyl)-9H-purin-2-yl}pyrimidin-2-amine] | 93% | – | < 0.01 µM | 72% | –
6 | CC(=O)N1CCN(c2nc3c(N4CCOCC4)nc(-c4cnc(N)nc4)nc3n2CC2CC2)CC1 [Example 10, 5-[8-(4-Acetylpiperazin-1-yl)-9-(cyclopropylmethyl)-6-morpholin-4-yl-9H-purin-2-yl]pyrimidin-2-amine] | – | 39% | 0.01 to 0.03 µM | – | 73%
7 | CNc1ncc(-c2nc(N3CCOCC3)c3nc(N4CCN(S(C)(=O)=O)CC4)n(CC(F)(F)F)c3n2)cn1 [Example 11, N-Methyl-5-{8-[4-(methylsulfonyl)piperazin-1-yl]-6-morpholin-4-yl-9-(2,2,2-trifluoroethyl)-9H-purin-2-yl}pyrimidin-2-amine] | 85% | – | < 0.01 µM | 68% | –
8 | C[C@@H]1CN(c2nc3c(N4CCOCC4)nc(-c4cnc(N)nc4)nc3n2CC(F)(F)F)C[C@H](C)N1 [Example 14, 5-[8-(cis-3,5-Dimethylpiperazin-1-yl)-6-morpholin-4-yl-9-(2,2,2-trifluoroethyl)-9H-purin-2-yl]pyrimidin-2-amine] | 64% | 82% | 0.01 to 0.03 µM | – | –
9 | CC(C)Cn1c(N2CCN(S(C)(=O)=O)[C@@H](C)C2)nc2c(N3CCOCC3)nc(-c3cnc(N)nc3)nc21 [Example 53, 5-{9-Isobutyl-8-[(3S)-3-methyl-4-(methylsulfonyl)piperazin-1-yl]-6-morpholin-4-yl-9H-purin-2-yl}pyrimidin-2-amine] | 45% | 68% | 0.01 to 0.03 µM | – | –
10 | CC(C)Cn1c(N2CCN(S(C)(=O)=O)[C@H](C)C2)nc2c(N3CCOCC3)nc(-c3cnc(N)nc3)nc21 [Example 54, 5-{9-Isobutyl-8-[(3R)-3-methyl-4-(methylsulfonyl)piperazin-1-yl]-6-morpholin-4-yl-9H-purin-2-yl}pyrimidin-2-amine] | – | 74% | 0.03 to 0.1 µM | – | 82%
